Results taken from US20130165368A1, “ANTIMICROBIAL COMPOUNDS” (priority 2010, published 2013).
Converted amounts (≈) assume the structure as drawn. Read-outs that look alike come from different tables or passages of the source.

Assays:
Format in all cases: cell-based
[1] = system: Staphylococcus aureus (MRSA); assay: MIC agar dilution, micro-organism 12 (11939); settings: Staphylococcus aureus (MRSA) 11939, read-out: MIC
Outline: (§1)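 Agar dilution in Isosensitest/CCEY agar with egg yolk and lysed horse blood; compounds as aqueous emulsions (myristyl and lauryl alcohol with 1-methyl-2-pyrrolidone and Tween 20). 1 µL spots of 1/15-diluted 0.5 McFarland suspensions, 37 °C aerobic, read at 22 and 48 h; MIC (mmol/L) is lowest concentration giving <10 colonies.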

Candida albicans = assay: MIC agar dilution, micro-organism 19 (90028); settings: Candida albicans 90028, read-out: MIC
Outline: as §1

Candida glabrata = assay: MIC agar dilution, micro-organism 20 (3943); settings: Nakaseomyces glabratus, Candida glabrata 3943, read-out: MIC
Outline: as §1

[2] = system: Enterococcus faecium (VRE) MB 305; assay: MIC agar dilution, VRE strain 25
Experimental: (§2) Molar equivalent concentrations were used to allow comparison between compounds of differing molecular mass. Due to weighing difficulties, any compound in solid form was melted in a water bath prior to dilution. To make ten-times strength concentrations, which takes into account agar dilution, 0.0352 mmol of each compound was weighed into plastic universal bottles and 4 mL of sterile distilled water (SDW) was added. To produce a homogenous emulsion the universals were vortexed; once achieved the emulsions were serial diluted by adding 2 mL to 2 mL of SDW.
(§3) For every 100 mL of Isosensitest agar (IST) (CM0471; Oxoid, Basingstoke, England), 3.1 g of the IST powder was added to 100 mL SDW (as per manufacturer's instructions) and sterilised for 15 minutes at 121° C. Once sterilised, the molten agar was cooled to 50° C. in a water-bath. Subsequently 4.8 g of CCEY powder (BC2160; Bioconnections, Wetherby, England), also known as Brazier's medium, was added to 100 mL SDW for every 100 mL of agar needed. This was then sterilised for 15 minutes at 121° C. Once sterilised the molten agar was cooled to 50° C. in a water-bath and 4 mL of egg-yolk emulsion (S2073; TCS Biosciences Ltd, Buckingham, United Kingdom) and 1 mL of lysed defibrinated horse blood (HB035; TCS Biosciences Ltd, Buckingham, United Kingdom) were also added for every 100 mL needed. Horse blood lysis is achieved by dilution to half concentration with SDW; when fully lysed the mixture will turn dark red in colour.
(§4) 18 mL agar was added to each universal and then poured into sterile Petri dishes. This step creates a 1/10 dilution resulting in agar plates of the required strength. Control plates for each set of strains were created by adding 18 mL of agar to 2 mL of SDW.
(§5) Suspensions of each bacterial species were prepared with a density equal to that of a 0.5 McFarland standard using a densitometer. All suspensions were made using sterile distilled water and fresh 18-20 hour cultures. As a 0.5 McFarland standard contains 1.5×10^8 CFU/mL and the multipoint inoculators applies 1 μL spots of liquid, each bacterial suspension was diluted 1/15 (20 μL suspension to 280 μL sterile distilled water).
(§6) Bacterial suspensions were prepared from fresh 18-24 hour cultures as previously described. 1 μL of each strain was inoculated onto all 100 agar plates containing a different chemical concentration and the 2 control plates. This was done using a multipoint inoculator which inoculates 20 strains per plate. All plates were incubated for 22 hours at 37° C. in aerobic conditions.
(§7) Each plate was examined for bacterial growth after 22 and 48 hours, with each being incubated in between examinations. A positive result was recorded as growth of ≧10 colonies. A negative result was recorded as growth of <10 colonies as this is equivalent to 99.9% inhibition. The lowest concentration of chemical that inhibited growth was recorded as the MIC. The results are recorded in Table IV below, where the numbers are quoted in mmol/L.
(§8) Given the positive performance of the ethoxylates of lauryl alcohol in reducing the MIC for a number of the micro-organisms tested, further MIC testing of Laureth-1 [C12E1] through to Laureth-8 [C12E8] was conducted on each of the following: • 10 strains of vancomycin-resistant enterococci (VRE)—listed in Table V below; and • 20 strains of methicillin-resistant Staphylococcus aureus (MRSA)—listed in Table VI.
(§9) The alkanol, alkanol derivatives, agar plates, and inocula were all prepared in the same way as described above.
(§10) The plates were examined in the same manner as described above and the results are recorded in Table VII below, where the numbers are quoted in mmol/L.

[3] = system: Enterococcus faecalis (VRE) MB 726; assay: MIC agar dilution, VRE strain 28
Experimental: as §2, §3, §4, §5, §6, §7, §8, §9, §10

MRSA EMRSA 15 21268/98 = assay: MIC agar dilution, MRSA strain 40; settings: Staphylococcus aureus
Experimental: as §2, §3, §4, §5, §6, §7, §8, §9, §10

MRSA EMRSA 15 21698/98 = assay: MIC agar dilution, MRSA strain 41; settings: Staphylococcus aureus
Experimental: as §2, §3, §4, §5, §6, §7, §8, §9, §10

MRSA EMRSA 15 1729/98 = assay: MIC agar dilution, MRSA strain 42; settings: Staphylococcus aureus
Experimental: as §2, §3, §4, §5, §6, §7, §8, §9, §10

MRSA EMRSA 16 21354/95 = assay: MIC agar dilution, MRSA strain 44; settings: Staphylococcus aureus
Experimental: as §2, §3, §4, §5, §6, §7, §8, §9, §10

MRSA EMRSA 16 03732/95 = assay: MIC agar dilution, MRSA strain 45; settings: Staphylococcus aureus
Experimental: as §2, §3, §4, §5, §6, §7, §8, §9, §10

MRSA EMRSA 16 00036/95 = assay: MIC agar dilution, MRSA strain 46; settings: Staphylococcus aureus
Experimental: as §2, §3, §4, §5, §6, §7, §8, §9, §10

MRSA EMRSA 16 00998/95 = assay: MIC agar dilution, MRSA strain 47; settings: Staphylococcus aureus
Experimental: as §2, §3, §4, §5, §6, §7, §8, §9, §10

MRSA EMRSA 16 07924/95 = assay: MIC agar dilution, MRSA strain 49; settings: Staphylococcus aureus
Experimental: as §2, §3, §4, §5, §6, §7, §8, §9, §10

[4] = Staphylococcus aureus, MRSA, 22 h, 22 hrs
[5] = Staphylococcus aureus, MRSA, 48 h, 48 hrs

Row | SMILES | MIC (Candida albicans; 22 hrs) [µM] | MIC (Candida albicans; 48 hrs) [µM] | MIC ([2]; 22 hrs) [µM] | MIC ([2]; 48 hrs) [µM] | MIC ([3]; 22 hrs) [µM] | MIC ([3]; 48 hrs) [µM] | MIC (MRSA EMRSA 15 21268/98; 22 hrs) [µM] | MIC (MRSA EMRSA 15 21268/98; 48 hrs) [µM] | MIC (MRSA EMRSA 15 21698/98; 22 hrs) [µM] | MIC (MRSA EMRSA 15 21698/98; 48 hrs) [µM] | MIC (MRSA EMRSA 15 1729/98; 22 hrs) [µM] | MIC (MRSA EMRSA 15 1729/98; 48 hrs) [µM] | MIC (MRSA EMRSA 16 21354/95; 22 hrs) [µM] | MIC (MRSA EMRSA 16 21354/95; 48 hrs) [µM] | MIC (MRSA EMRSA 16 03732/95; 22 hrs) [µM] | MIC (MRSA EMRSA 16 03732/95; 48 hrs) [µM] | MIC (MRSA EMRSA 16 00036/95; 22 hrs) [µM] | MIC (MRSA EMRSA 16 00036/95; 48 hrs) [µM] | MIC (MRSA EMRSA 16 00998/95; 22 hrs) [µM] | MIC (MRSA EMRSA 16 00998/95; 48 hrs) [µM] | other results
1 | CCCCCCCCCCCCOCCOCCOCCO [L3, Triethylene Glycol Monododecyl Ether] | 220 (≈ 70.1 µg/mL) | 220 (≈ 70.1 µg/mL) | 440 (≈ 140 µg/mL) | 440 (≈ 140 µg/mL) | 220 (≈ 70.1 µg/mL) | 220 (≈ 70.1 µg/mL) | 110 (≈ 35 µg/mL) | 110 (≈ 35 µg/mL) | 110 (≈ 35 µg/mL) | 110 (≈ 35 µg/mL) | 110 (≈ 35 µg/mL) | 110 (≈ 35 µg/mL) | 110 (≈ 35 µg/mL) | 110 (≈ 35 µg/mL) | 110 (≈ 35 µg/mL) | 110 (≈ 35 µg/mL) | 55 (≈ 17.5 µg/mL) | 55 (≈ 17.5 µg/mL) | 55 (≈ 17.5 µg/mL) | 55 (≈ 17.5 µg/mL) | MIC [1, 4]: 110 µM (≈ 35 µg/mL); MIC [1, 5]: 110 µM (≈ 35 µg/mL); MIC (Candida glabrata; 22 h, 22 hrs): 110 µM (≈ 35 µg/mL); MIC (Candida glabrata; 48 h, 48 hrs): 110 µM (≈ 35 µg/mL); MIC (MRSA EMRSA 16 07924/95; 22 hrs): 55 µM (≈ 17.5 µg/mL); MIC (MRSA EMRSA 16 07924/95; 48 hrs): 55 µM (≈ 17.5 µg/mL)
2 | CCCCCCCCCCCCOCCOCCOCCOCCO [L4, Tetraethylene Glycol Monododecyl Ether] | 440 (≈ 160 µg/mL) | 220 (≈ 79.8 µg/mL) | 110 (≈ 39.9 µg/mL) | 110 (≈ 39.9 µg/mL) | 220 (≈ 79.8 µg/mL) | 220 (≈ 79.8 µg/mL) | 55 (≈ 19.9 µg/mL) | 55 (≈ 19.9 µg/mL) | 55 (≈ 19.9 µg/mL) | 55 (≈ 19.9 µg/mL) | 55 (≈ 19.9 µg/mL) | 55 (≈ 19.9 µg/mL) | 55 (≈ 19.9 µg/mL) | 55 (≈ 19.9 µg/mL) | 110 (≈ 39.9 µg/mL) | 110 (≈ 39.9 µg/mL) | 55 (≈ 19.9 µg/mL) | 55 (≈ 19.9 µg/mL) | 55 (≈ 19.9 µg/mL) | 55 (≈ 19.9 µg/mL) | MIC [1, 4]: 110 µM (≈ 39.9 µg/mL); MIC [1, 5]: 110 µM (≈ 39.9 µg/mL); MIC (Candida glabrata; 22 h, 22 hrs): 110 µM (≈ 39.9 µg/mL); MIC (Candida glabrata; 48 h, 48 hrs): 110 µM (≈ 39.9 µg/mL); MIC (MRSA EMRSA 16 07924/95; 22 hrs): 55 µM (≈ 19.9 µg/mL); MIC (MRSA EMRSA 16 07924/95; 48 hrs): 55 µM (≈ 19.9 µg/mL)
3 | CCCCCCCCCCCCOCCOCCOCCOCCOCCO [L5, Pentaethylene Glycol Monododecyl Ether] | 440 (≈ 179 µg/mL) | 440 (≈ 179 µg/mL) | 110 (≈ 44.7 µg/mL) | 110 (≈ 44.7 µg/mL) | 220 (≈ 89.5 µg/mL) | 220 (≈ 89.5 µg/mL) | 110 (≈ 44.7 µg/mL) | 110 (≈ 44.7 µg/mL) | 110 (≈ 44.7 µg/mL) | 110 (≈ 44.7 µg/mL) | 110 (≈ 44.7 µg/mL) | 110 (≈ 44.7 µg/mL) | 110 (≈ 44.7 µg/mL) | 110 (≈ 44.7 µg/mL) | 110 (≈ 44.7 µg/mL) | 110 (≈ 44.7 µg/mL) | 110 (≈ 44.7 µg/mL) | 110 (≈ 44.7 µg/mL) | 110 (≈ 44.7 µg/mL) | 110 (≈ 44.7 µg/mL) | MIC [1, 4]: 110 µM (≈ 44.7 µg/mL); MIC [1, 5]: 220 µM (≈ 89.5 µg/mL); MIC (Candida glabrata; 22 h, 22 hrs): 110 µM (≈ 44.7 µg/mL); MIC (Candida glabrata; 48 h, 48 hrs): 220 µM (≈ 89.5 µg/mL); MIC (MRSA EMRSA 16 07924/95; 22 hrs): 110 µM (≈ 44.7 µg/mL); MIC (MRSA EMRSA 16 07924/95; 48 hrs): 110 µM (≈ 44.7 µg/mL)
4 | CCCCCCCCCCCCOCCOCCOCCOCCOCCOCCO [L6, Hexaethylene Glycol Monododecyl Ether] | > 880 | 880 (≈ 397 µg/mL) | 220 (≈ 99.1 µg/mL) | 220 (≈ 99.1 µg/mL) | > 880 | > 880 | 110 (≈ 49.6 µg/mL) | 110 (≈ 49.6 µg/mL) | 110 (≈ 49.6 µg/mL) | 110 (≈ 49.6 µg/mL) | 110 (≈ 49.6 µg/mL) | 110 (≈ 49.6 µg/mL) | 220 (≈ 99.1 µg/mL) | 440 (≈ 198 µg/mL) | 220 (≈ 99.1 µg/mL) | 220 (≈ 99.1 µg/mL) | 220 (≈ 99.1 µg/mL) | 440 (≈ 198 µg/mL) | 220 (≈ 99.1 µg/mL) | 440 (≈ 198 µg/mL) | MIC [1, 4]: 110 µM (≈ 49.6 µg/mL); MIC [1, 5]: 110 µM (≈ 49.6 µg/mL); MIC (Candida glabrata; 22 h, 22 hrs): 220 µM (≈ 99.1 µg/mL); MIC (Candida glabrata; 48 h, 48 hrs): 220 µM (≈ 99.1 µg/mL); MIC (MRSA EMRSA 16 07924/95; 22 hrs): 110 µM (≈ 49.6 µg/mL); MIC (MRSA EMRSA 16 07924/95; 48 hrs): 110 µM (≈ 49.6 µg/mL)
5 | CCCCCCCCCCCCOCCOCCOCCOCCOCCOCCOCCO [L7, Heptaethylene Glycol Monododecyl Ether] | > 880 | > 880 | 220 (≈ 109 µg/mL) | 220 (≈ 109 µg/mL) | > 880 | > 880 | > 440 | > 440 | 440 (≈ 218 µg/mL) | > 440 | 440 (≈ 218 µg/mL) | 440 (≈ 218 µg/mL) | > 440 | > 440 | > 440 | > 440 | 440 (≈ 218 µg/mL) | > 440 | > 440 | > 440 | MIC ([1]; 22 hrs): 220 µM (≈ 109 µg/mL); MIC ([1]; 48 hrs): 220 µM (≈ 109 µg/mL); MIC (Candida glabrata; 22 hrs): > 880 µM; MIC (Candida glabrata; 48 hrs): > 880 µM; MIC (MRSA EMRSA 16 07924/95; 22 hrs): > 440 µM; MIC (MRSA EMRSA 16 07924/95; 48 hrs): > 440 µM
